From ChEMBL document CHEMBL5260859, “Discovery and structure-activity relationship study of 2-piperazinyl-benzothiazole derivatives as potent and selective PPARδ agonists” (Bioorg Med Chem, 2023)

Key:
[1] = molecular target: T1, Peroxisome proliferator-activated receptor delta (Homo sapiens) (UniProt Q03181); assay: Agonist activity at Gal4-fused human PPAR-delta ligand binding domain expressed in CHO-K1 cells assessed as receptor transactivation incubated for 24 to 48 hrs by luciferase reporter gene assay relative to control; type: cell-based; details: time lower 24.0 hrs, time upper […]
T1 sequence (whole entry): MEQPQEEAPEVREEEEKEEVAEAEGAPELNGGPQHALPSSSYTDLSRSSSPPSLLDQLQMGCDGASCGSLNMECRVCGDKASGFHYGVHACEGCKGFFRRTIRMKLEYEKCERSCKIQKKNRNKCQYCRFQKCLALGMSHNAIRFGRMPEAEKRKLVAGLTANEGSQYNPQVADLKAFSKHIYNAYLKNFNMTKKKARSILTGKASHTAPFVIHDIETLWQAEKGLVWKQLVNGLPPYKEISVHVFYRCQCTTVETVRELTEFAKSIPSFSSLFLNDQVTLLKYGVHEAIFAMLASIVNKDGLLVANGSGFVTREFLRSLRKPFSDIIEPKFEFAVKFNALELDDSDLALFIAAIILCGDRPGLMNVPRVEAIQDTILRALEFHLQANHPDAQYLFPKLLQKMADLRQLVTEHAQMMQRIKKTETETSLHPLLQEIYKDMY

[2] = molecular target: T2, Peroxisome proliferator-activated receptor alpha (Homo sapiens) (UniProt Q07869); assay: Agonist activity at Gal4-fused human PPAR-alpha ligand binding domain expressed in CHO-K1 cells assessed as receptor transactivation incubated for 24 to 48 hrs by luciferase reporter gene assay relative to control; type: cell-based; details: time lower 24.0 hrs, time upper […]
T2 sequence (whole entry): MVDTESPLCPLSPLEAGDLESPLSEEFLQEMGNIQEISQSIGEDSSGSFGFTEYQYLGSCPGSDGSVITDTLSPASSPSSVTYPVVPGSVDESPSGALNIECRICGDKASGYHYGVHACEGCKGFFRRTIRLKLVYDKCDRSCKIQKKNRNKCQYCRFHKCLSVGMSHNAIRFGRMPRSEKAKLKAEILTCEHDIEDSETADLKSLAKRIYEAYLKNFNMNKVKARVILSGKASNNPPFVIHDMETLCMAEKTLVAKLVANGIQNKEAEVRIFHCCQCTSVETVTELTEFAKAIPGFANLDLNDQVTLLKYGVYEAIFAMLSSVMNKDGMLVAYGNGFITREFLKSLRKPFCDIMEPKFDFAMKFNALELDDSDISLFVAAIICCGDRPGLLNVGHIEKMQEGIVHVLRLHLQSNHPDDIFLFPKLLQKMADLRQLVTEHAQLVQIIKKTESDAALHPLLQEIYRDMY

Homo sapiens = species: Homo sapiens; assay: Selectivity ratio of EC50 for agonist activity at Gal4-fused human PPAR-alpha ligand binding domain expressed in CHO-K1 cells to EC50 for agonist activity at Gal4-fused human PPAR-delta ligand binding domain expressed in CHO-K1 cells; type: cell-based
[3] = molecular target: T3, Peroxisome proliferator-activated receptor gamma (Homo sapiens, UniProt P37231); type: cell-based, CHO-K1
T3 sequence (P37231 whole entry): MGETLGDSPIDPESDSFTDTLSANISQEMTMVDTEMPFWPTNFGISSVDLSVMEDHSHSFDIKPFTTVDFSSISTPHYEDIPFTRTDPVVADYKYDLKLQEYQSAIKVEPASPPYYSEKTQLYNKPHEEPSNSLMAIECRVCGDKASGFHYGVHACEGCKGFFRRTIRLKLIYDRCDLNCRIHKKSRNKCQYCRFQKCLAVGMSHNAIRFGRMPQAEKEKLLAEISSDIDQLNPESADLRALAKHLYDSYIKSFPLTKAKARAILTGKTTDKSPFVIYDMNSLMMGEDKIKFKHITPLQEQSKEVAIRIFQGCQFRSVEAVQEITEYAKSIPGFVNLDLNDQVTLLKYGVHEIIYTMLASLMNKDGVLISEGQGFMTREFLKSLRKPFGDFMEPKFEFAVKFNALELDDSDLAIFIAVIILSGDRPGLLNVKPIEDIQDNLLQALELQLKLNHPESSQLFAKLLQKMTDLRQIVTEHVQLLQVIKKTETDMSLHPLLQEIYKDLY

[4] = molecular target: T4, Peroxisome proliferator-activated receptor delta (Mus musculus, UniProt P35396); assay: Agonist activity at Gal4-fused mouse PPAR-delta ligand binding domain expressed in CHO-K1 cells assessed as receptor transactivation incubated for 24 to 48 hrs by luciferase reporter gene assay; type: cell-based
T4 sequence (P35396 whole entry): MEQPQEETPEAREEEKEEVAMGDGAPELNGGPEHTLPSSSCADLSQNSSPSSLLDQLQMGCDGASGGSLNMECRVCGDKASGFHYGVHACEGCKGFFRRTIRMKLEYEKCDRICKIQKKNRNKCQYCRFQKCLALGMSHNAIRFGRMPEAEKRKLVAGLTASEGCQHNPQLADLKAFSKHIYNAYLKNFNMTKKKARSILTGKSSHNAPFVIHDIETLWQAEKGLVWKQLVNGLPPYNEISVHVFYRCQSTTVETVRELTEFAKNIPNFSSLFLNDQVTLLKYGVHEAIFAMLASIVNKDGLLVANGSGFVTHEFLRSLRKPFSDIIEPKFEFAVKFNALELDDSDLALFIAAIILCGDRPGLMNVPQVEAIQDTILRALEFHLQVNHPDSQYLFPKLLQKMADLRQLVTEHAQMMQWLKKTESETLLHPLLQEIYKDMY

[5] = molecular target: T5, Peroxisome proliferator-activated receptor alpha (Mus musculus, UniProt P23204); assay: Agonist activity at Gal4-fused mouse PPAR-alpha ligand binding domain expressed in CHO-K1 cells assessed as receptor transactivation incubated for 24 to 48 hrs by luciferase reporter gene assay; type: cell-based
T5 sequence (P23204 whole entry): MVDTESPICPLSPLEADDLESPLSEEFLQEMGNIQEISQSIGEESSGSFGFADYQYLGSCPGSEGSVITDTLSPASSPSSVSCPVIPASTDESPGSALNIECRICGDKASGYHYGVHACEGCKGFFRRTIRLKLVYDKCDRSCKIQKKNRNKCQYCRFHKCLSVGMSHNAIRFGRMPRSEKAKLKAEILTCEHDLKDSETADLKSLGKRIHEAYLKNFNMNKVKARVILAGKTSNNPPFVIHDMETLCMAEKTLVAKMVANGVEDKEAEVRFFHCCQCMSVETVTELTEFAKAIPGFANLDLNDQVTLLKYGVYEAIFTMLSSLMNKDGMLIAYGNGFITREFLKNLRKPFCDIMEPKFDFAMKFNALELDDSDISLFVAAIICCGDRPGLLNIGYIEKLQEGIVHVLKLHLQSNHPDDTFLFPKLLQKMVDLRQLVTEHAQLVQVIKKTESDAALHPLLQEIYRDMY

[6] = molecular target: T6, Peroxisome proliferator-activated receptor alpha (Mus musculus) (UniProt P23204); assay: Agonist activity at Gal4-fused mouse PPAR-alpha ligand binding domain expressed in CHO-K1 cells assessed as receptor transactivation incubated for 24 to 48 hrs by luciferase reporter gene assay relative to control; type: cell-based; details: time lower 24.0 hrs, time upper […]
T6 sequence (whole entry): T5 sequence (P23204 whole entry)

Mus musculus = species: Mus musculus; assay: Selectivity ratio of EC50 for agonist activity at Gal4-fused mouse PPAR-gamma ligand binding domain expressed in CHO-K1 cells to EC50 for agonist activity at Gal4-fused mouse PPAR-delta ligand binding domain expressed in CHO-K1 cells; type: cell-based

SMILES	Emax [1]	Emax [2]	Ratio EC50 (Homo sapiens)	EC50 [3]	EC50 [4]	EC50 [5]	Emax [6]	Ratio EC50 (Mus musculus)
Cc1cc(CC(=O)O)cc(CN2CCN(c3nc4ccc(C(F)(F)F)cc4s3)[C@H](C)C2)c1	13.5%	6.3%	258	1200 nM	24 nM	3700 nM	1.7%	74
Cc1cc(CC(=O)O)cc(CN2CCN(c3nc4ccc(C(F)(F)F)cc4s3)[C@@H](C)C2)c1	14%	6.3%	175	3100 nM	39 nM	3900 nM	9%	69
